Reference: patent US20230278987A1, “Antimicrobial Compounds and Methods” (Curza Global, LLC, priority 2019, published 2023)
Values after ≈ are worked out from the molar mass of the structure shown. Counter-ions that a name gives are not always drawn. Like-named read-outs stand apart in the source and are kept apart here.

Legend:
[1] = test system: E.coli (Ec); assay: Broth microdilution MIC against E.coli (Ec); format: cell-based; conditions: for MIC: Escherichia coli, read-out: E. coli + bicarb 6.25 (MIC)
Experimental: (§1) A certified BSL-2 laboratory was used for testing. Compounds were evaluated using the broth microdilution minimum inhibitory concentration (MIC) and minimum bactericidal concentration (MBC) assays defined by Clinical and Laboratory Standards Institute (CLSI) in the M26-A guideline against S.aureus (Sa), E.coli (Ec), K.pneumoniae (Kp), A.baumannii (Ab), E.faecalis (Ef) and P.aeruginosa (Pa).
(§2) MICs were determined using the Clinical Laboratory and Standards Institute (CLSI) Broth Microdilution Method with slight modification. Clinical and Laboratory Standards Institute (2012). “Methods for dilution antimicrobial susceptibility tests for bacteria that grow aerobically; approved standard, 9th ed. M07-A9. Clinical and Laboratory Standards Institute, Wayne, PA.” Serial two-fold dilutions of compounds are prepared in sterile clear roundbottom 96-well plates.
(§3) To prepare microdilution trays, two-fold dilutions of antimicrobial agent are prepared in growth medium: Cation-Adjusted Mueller-Hinton Broth (CAMHB), or CAMHB supplemented with sodium bicarbonate (6.25 or 25 mM final concentration prepared from a 1.0 M stock solution) or CAMHB supplemented with heat inactivated human serum (Fisher Cat. # BP2657100) 0-50% by adding 200 µL of the highest concentration to be tested (64 µg/mL, for example) in row A, mixing and transferring 100 µL from row A to 100 µL growth medium in row B, then repeating the mixing and transferring through row H of the 96-well plate, discarding the excess 100 µL remaining. This slight modification to the CLSI protocol enables evaluation of MICs for 3 compounds per plate in triplicate, albeit with only 8 compound dilutions (CLSI protocol enables 2 compounds in triplicate with 10 dilutions). Bacterial suspensions are added to a final concentration of 5 × 10^4 CFU/well by adding 5 µL of a 1:10 dilution of a 0.5 McFarland suspension (1 × 10^8 CFU/mL) for each bacterium evaluated. Bacterial suspensions were prepared using the growth method described by CLSI. Well-isolated colonies (3-5 from an agar plate) were selected using a sterile loop and used to inoculate a tube containing 4 mL of CAMHB. The cultures are incubated at 35 ± 2° C. until it achieves or exceeds the turbidity of the 0.5 McFarland standard, determined by measuring A600nm (usually two to six hours). When growth exceeds a 0.5 McFarland standard, the turbidity is adjusted with broth to be equivalent to a 0.5 McFarland standard.

[2] = test system: P.aeruginosa (Pa); assay: Broth microdilution MIC against P.aeruginosa (Pa); format: cell-based; conditions: for MIC: Pseudomonas aeruginosa
Experimental: as §1, §2, §3

[3] = target: Rabbit Reticulocyte Lysate (eukaryotic protein synthesis); assay: Rabbit Reticulocyte Lysate: inhibition of eukaryotic protein synthesis (luciferase); format: biochemical; conditions: 30° C. for 90 minutes, read-out: retic. IC50
Experimental: Inhibition of eukaryotic protein synthesis was determined using the Rabbit Reticulocyte Lysate System, Nuclease-Treated from Promega (catalog #L-4960) with slight modifications to the manufacturer’s protocol. Compounds were serial diluted in 0.5 mL microcentrifuge tubes by mixing and transferring 50 µL from the highest concentration to 50 µL of water, mixing and transferring 50 µL of this 2-fold dilution to 50 µL of water. This mixing and transferring was repeated so that there are a total of 8 tubes with serial dilutions of compound at 10× the desired screening concentration that are ultimately diluted to 1× by the addition of rabbit reticulocyte luciferase synthesis mixture. Serial dilutions of compounds were added (2.5 µL) to wells in a black round bottom 96-well plate. Water (2.5 µL) was used as a “no inhibitor” control in 4 wells/plate. No RNA control reaction mixture (2 µL; see below) was used as a control in 4 wells/plate for background luminescence. Rabbit reticulocyte luciferase synthesis mixture (22.5 µL; see below) was added to wells with compounds or water mixture and incubated at 30° C. for 90 minutes. Luciferase assay reagent (25 µL) was added with luminescence measured using a BioTek Synergy HTX plate reader. % Inhibition was determined relative to no inhibitor controls.
Rabbit reticulocyte luciferase synthesis mixture: • 1,000 µL rabbit reticulocyte lysate • 5.7 µL Luciferase Control RNA (1 µg/ µL) • 26 µL complete amino acid mixture • 395 µL water
No RNA Control • 70 µL rabbit reticulocyte lysate • 2 µL complete amino acid mixture • 28 µL water

[4] = test system: E.coli S30 extract (bacterial protein synthesis); assay: E.coli S30 extract: inhibition of bacterial protein synthesis (luciferase); format: biochemical; conditions: 37° C. for 1 hour
Experimental: E.coli S30 extract: Inhibition of bacterial protein synthesis was determined using the E.coli S30 Extract System for Circular DNA (Promega catalog #L-2010) and Luciferase Assay Reagent (Promega catalog #E1500) with slight modifications to a published protocol. Fyfe, C., Sutcliffe, J.A. and Grossman, T.H. (2012) “Development and characterization of a Pseudomonas aeruginosa in vitro coupled transcription-translation assay system for evaluation of translation inhibitors” J. Microbiol. Methods 90(3), 256-261.
Compounds were serial diluted in 0.5 mL microcentrifuge tubes by mixing and transferring 50 µL from the highest concentration to 50 µL of water, mixing and transferring 50 µL of this 2-fold dilution to 50 µL of water. This mixing and transferring was repeated so that there are a total of 8 tubes with serial dilutions of compound at 10× the desired screening concentration that are ultimately diluted to 1× by the addition of S30 luciferase synthesis mixture. Serial dilutions of compounds were added (2 µL) to wells in a black round bottom 96-well plate. Water (2 µL) was used as a “no inhibitor” control in 4 wells/plate. No DNA control reaction mixture (20 µL; see below) was used as a control in 4 wells/plate for background luminescence. S30 luciferase synthesis mixture (18 µL; see below) was added to wells with compounds or water mixture and incubated at 37° C. for 1 hour. Reactions were stopped by transferring to 4° C. refrigerator for 5 minutes then 25 µL of luciferase activity mix was added. Luminescence was measured using a BioTek Synergy HTX plate reader. % Inhibition was determined relative to no inhibitor controls.
S30 luciferase synthesis mixture: • 445 µL S30 extract, circular • 712 µL S30 Premix without amino acids • 4.45 µL pBESTluc™ DNA (1 µg/ µL) • 78 µL complete amino acid mixture • 267 µL water
No DNA control: • 20 µL S30 extract, circular • 32 µL S30 Premix without amino acids • 7 µL complete amino acid mixture • 21 µL water

[5] = test system: A.baumannii (Ab); assay: Broth microdilution MIC against A.baumannii (Ab); format: cell-based; conditions: for MIC: Acinetobacter baumannii, read-out: Ab +bicarb 6.25 (MIC)
Experimental: as §1, §2, §3

[6] = test system: S.aureus (Sa); assay: Broth microdilution MIC against S.aureus (Sa); format: cell-based; conditions: for MIC: Staphylococcus aureus, read-out: Sa + bicarb 6.25 (MIC)
Experimental: as §1, §2, §3

[7] = test system: E.faecalis (Ef); assay: Broth microdilution MIC against E.faecalis (Ef); format: cell-based; conditions: for MIC: Enterococcus faecalis, read-out: Ef +bicarb 6.25 (MIC)
Experimental: as §1, §2, §3

[8] = CAMHB supplemented with sodium bicarbonate 6.25 mM
[9] = CAMHB supplemented with sodium bicarbonate 6.25 mM, read-out: Pa +bicarb 6.25 (MIC)
[10] = CAMHB supplemented with sodium bicarbonate 6.25 mM, Hydrochloride Salt
[11] = read-out: Pa +bicarb 6.25 (MIC)

## CC(C)(N)C(=O)N1CCN(C(=O)Nc2ccn(-c3ccc4c(c3)CCC(N[C@H]3CC[C@H](N)C3)C4)c(=O)n2)CC1 (single isomer, unassigned) [Compound 27, Hydrochloride Salt]
[1]; [8]
  MIC: < 8 µg/mL
[2]; [9]
  MIC: > 32 µg/mL
[3]
  IC50: ≥ 1000 nM
[4]
  IC50: < 500 nM
[5]; [8]
  MIC: > 32 µg/mL
[6]; [8]
  MIC: < 8 µg/mL
[7]; [8]
  MIC: < 8 µg/mL

## CC(C)(N)C(=O)N1CCN(C(=O)Nc2ccn(-c3ccc4c(c3)CCC(N[C@H]3CC[C@H](N)C3)C4)c(=O)n2)CC1 (single isomer, unassigned) [Compound 28, Hydrochloride Salt]
[1]; [8]
  E. coli + bicarb 6.25 (MIC): +++ (An MIC value (µg/mL) that is less than 8 µg/mL)
[2]; [8]
  Pa +bicarb 6.25 (MIC): + (An MIC value (µg/mL) that is 32 µg/mL or greater)
[3]
  IC50: ≥ 1000 nM
[4]
  IC50: < 500 nM
[5]; [8]
  Ab +bicarb 6.25 (MIC): + (An MIC value (µg/mL) that is 32 µg/mL or greater)
[6]; [8]
  Sa + bicarb 6.25 (MIC): +++ (An MIC value (µg/mL) that is less than 8 µg/mL)
[7]; [10]
  Ef +bicarb 6.25 (MIC): ++ (An MIC value (µg/mL) that is 8 µg/mL or greater and less than 32 µg/mL)

## CC(C)(N)C(=O)N1CCN(C(=O)Nc2ccn(-c3ccc4c(c3)CCC(N[C@H]3CC[C@@H](N)C3)C4)c(=O)n2)CC1 (single isomer, unassigned) [Compound 33, Hydrochloride Salt]
[1]; [8]
  MIC: < 8 µg/mL
[2]; [9]
  MIC: > 32 µg/mL
[3]
  IC50: ≥ 1000 nM
[4]
  IC50: < 500 nM
[5]; [8]
  MIC: > 32 µg/mL
[6]; [8]
  MIC: 8 to 32 µg/mL
[7]; [8]
  MIC: > 32 µg/mL

## CC(C)(N)C(=O)N1CCN(C(=O)Nc2ccn(-c3ccc4c(c3)CCC(N[C@H]3CC[C@@H](N)C3)C4)c(=O)n2)CC1 (single isomer, unassigned) [Compound 34, Hydrochloride Salt]
[1]; [8]
  E. coli + bicarb 6.25 (MIC): +++ (An MIC value (µg/mL) that is less than 8 µg/mL)
[2]; [8]
  Pa +bicarb 6.25 (MIC): + (An MIC value (µg/mL) that is 32 µg/mL or greater)
[3]
  IC50: ≥ 1000 nM
[4]
  IC50: < 500 nM
[5]; [8]
  Ab +bicarb 6.25 (MIC): + (An MIC value (µg/mL) that is 32 µg/mL or greater)
[6]; [10]
  Sa + bicarb 6.25 (MIC): +++ (An MIC value (µg/mL) that is less than 8 µg/mL)
[7]; [8]
  Ef +bicarb 6.25 (MIC): + (An MIC value (µg/mL) that is 32 µg/mL or greater)

## CC(C)(N)C(=O)N1CCN(C(=O)Nc2ccn(-c3ccc4c(c3)CCC(N3C[C@@H]5[C@@H](N)[C@@H]5C3)C4)c(=O)n2)CC1 (stereo partly shown) [Compound 1]
[3]
  IC50: ≥ 1000 nM
[4]
  IC50: ≥ 1000 nM

## CC(C)(N)C(=O)N1CCN(C(=O)Nc2ccn(-c3ccc4c(c3)CCC(N3CCC(N)CC3)C4)c(=O)n2)CC1 (stereo not shown) [Compound 2]
[1]; [8]
  MIC: < 8 µg/mL
[3]
  IC50: ≥ 1000 nM
[4]
  IC50: < 500 nM

## CC(C)(N)C(=O)N1CCN(C(=O)Nc2ccn(-c3ccc4c(c3)CCC(N3C[C@@H]5[C@@H](CN)[C@@H]5C3)C4)c(=O)n2)CC1 (stereo partly shown) [Compound 3]
[3]
  IC50: ≥ 1000 nM
[4]
  IC50: < 500 nM

## CC(C)(N)C(=O)N1CCN(C(=O)Nc2ccn(-c3ccc4c(c3)CCC(N3CC[C@@H](CN)C3)C4)c(=O)n2)CC1 (stereo partly shown) [Compound 4]
[2]; CAMHB supplemented with sodium bicarbonate 25 mM, read-out: Pa +bicarb 25 (MIC)
  MIC: 8 to 32 µg/mL (≈ 14.9 to 59.6 µM)
[3]
  IC50: ≥ 1000 nM
[4]
  IC50: < 500 nM

## CC(C)(N)C(=O)N1CCN(C(=O)Nc2ccn(-c3ccc4c(c3)CCC(N3CC[C@H](CN)C3)C4)c(=O)n2)CC1 (stereo partly shown) [Compound 5]
[3]
  IC50: ≥ 1000 nM
[4]
  IC50: < 500 nM

## C[C@](N)(CO)C(=O)N1CCN(C(=O)Nc2ccn(-c3ccc4c(c3)CCC(N[C@H]3CC[C@H](N)C3)C4)c(=O)n2)CC1 (stereo partly shown) [Compound 24, Hydrochloride Salt]
[1]
  MIC: < 8 µg/mL
[2]; [11]
  MIC: > 32 µg/mL
[5]
  MIC: > 32 µg/mL
[6]
  MIC: > 32 µg/mL
[7]
  MIC: > 32 µg/mL

## CC(C)(N)C(=O)N1CCN(C(=O)Nc2ccn(-c3ccc4c(c3)CCC(N[C@H]3C[C@H](CN)C3)C4)c(=O)n2)CC1 (stereo partly shown) [Compound 41, Hydrochloride Salt]
[1]
  MIC: < 8 µg/mL
[2]; [11]
  MIC: > 32 µg/mL
[5]
  MIC: > 32 µg/mL
[6]
  MIC: 8 to 32 µg/mL
[7]
  MIC: > 32 µg/mL

## CC(C)(N)C(=O)N1CCN(C(=O)Nc2ccn(-c3ccc4c(c3)CCC(N[C@H]3C[C@@H](CN)C3)C4)c(=O)n2)CC1 (stereo partly shown) [Compound 44, Hydrochloride Salt]
[1]
  MIC: 8 to 32 µg/mL
[2]; [11]
  MIC: > 32 µg/mL
[5]
  MIC: > 32 µg/mL
[6]
  MIC: > 32 µg/mL
[7]
  MIC: > 32 µg/mL
